Results taken from patent US20220395465A1, “STING AGONIST COMPRISING EXOSOMES COMBINED WITH IL-12 DISPLAYING EXOSOMES FOR TREATING A TUMOUR” (CODIAK BIOSCIENCES, INC., priority 2019, published 2022).

Test system: MC38 tumor
Assay: MC38 mouse tumor model, tumor growth, complete responses and rechallenge
Type: in vivo, mice
Details: equivalent IL-12 dose
Method: Potency was assessed in vitro using human PBMCs or murine splenocytes and in vivo using mouse subcutaneous tumor models. Local versus systemic pharmacology was determined with intratumoral injection in mice and subcutaneous injection in monkeys. All studies were benchmarked against recombinant IL-12 (rIL-12).
In addition, exoIL-12 administration led to enhanced intratumoral IFN-gamma AUC by about 4-fold as compared to recombinant IL-12 (FIG. 7B). […] This correlated with dose-dependent increases in tumor antigen-specific CD8+ T cells, which increased nearly 4-fold in exoIL-12 treated mice (FIG. 7E).
Suppression of tumor growth was again observed following MC38 rechallenge (FIG. 7D).

Substance: rIL-12: recombinant IL-12, benchmark in all studies
- complete responses (share of mice): 0%
